Measurements published in patent US20090215666A1, “VIVIT POLYPEPTIDES, THERAPEUTIC AGENT COMPRISING THE SAME, AND METHOD OF SCREENING FOR ANTI-CANCER AGENT” (Oncotherapy Science, Inc., priority 2005, published 2009).
Ends that are not written are not given here.

Tests used:
PK-1 cells [1] = assay: MTT cell-growth assay for evaluation of inhibitory peptides; assay type: cell-based, Human; details: FIG. 4
[2] = design: species or system mice (BALB/cA Jcl-nu); details: mouse, in vivo, 9 mg/kg/day
Procedure: In vivo experiments were performed in our animal facility in accordance with institutional guidelines. A 0.1-ml aliquot of suspended PK-1 cells (5×10^6 cells) was injected subcutaneously into the flanks of six-week-old female athymic mice (BALB/cA Jcl-nu). Tumor volumes were determined using the formula: 0.52×(larger diameter)×(smaller diameter)×(depth). When the xenograft reached to 100 mm^3 in size, animals were randomly divided into two or three groups and received intratumoral or intravenous injection of 180 μg of 11R-C1958VIVIT, 11R-VEET, or PBS for 21 consecutive days. Tumor growth was assessed by calculating the ratio of tumor volume on the indicated day to the volume calculated on the initiation of treatment.

PK-1 cells [3] = assay: Flow cytometric analysis of sub-G1 fraction (propidium iodide); assay type: cell-based, Human; details: 40 μM, 12 hr, FIG. 7
Procedure: PK-1 cell was maintained as described before (RPMI with 10% FBS). The cells were incubated with or without negative control (40 μM as a final concentration) or C1958VIVIT (10, 20, and 40 μM) peptide for 12 hr. After the incubation, cells were detached by trypsin and collected to tubes and washed with PBS for 3 times. Then the cells were fixed with 67% ethanol for 30 min at room temperature (RT), washed with PBS once, and treated with RNase (2 mg/ml in PBS) for 30 min at RT. Finally the cell nuclei were stained with propidium iodide (PI) for 30 min at RT. Flow cytometric analysis was done with FACS calibur (BD).

Substance: RRRRRRRRRRR-GGG-KHLDVPDIIITPPTPT [11R-C1958]
- inhibition of growth of the cells (MTT assay) (PK-1 cells [1]; peptide 25 μM): neither 11R—C1958 (25 μM) nor 11R-VEET (40 μM) peptides, significantly inhibited the growth of the cells

Substance: RRRRRRRRRRRGGGKHLDVPVIVITPPTPT [11R-C1958VIVIT, RRRRRRRRRRR-GGG-KHLDVPVIVITPPTPT]
- apparent negative effects on mice conditions [2]: nor apparent negative effects on mice conditions were observed

Substance: RRRRRRRRRRR-GGG-MAGPPHIVEETGPHVI (RRRRRRRRRRRGGGMAGPPHIVEETGPHVI; Artificially synthesized peptide for inhibition of the interaction of C1958 and PPP3CA as control) [11R-VEET, 10, reference compound]
- inhibition of growth of the cells (MTT assay) (PK-1 cells [1]; peptide 40 μM): neither 11R—C1958 (25 μM) nor 11R-VEET (40 μM) peptides, significantly inhibited the growth of the cells
- sub-G1 fraction of the treated cells (PK-1 cells [3]): did not affect
